In the METLIN SMRT retention time set (Domingo-Almenara et al. 2019):

Assay: gradient 5% acetonitrile 3 min, to 50% in 2 min, to 85% in 15 min, held 3 min, 100 µL/min
Details: column: Zorbax Extend-C18 2.1 x 50 mm; eluents: water / acetonitrile, 0.1% formic acid
Procedure, shortened: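 Using water and acetonitrile that each contained 0.1% formic acid, mixtures of ~100 pure standards were separated at 100 μL/min on a Zorbax Extend-C18 column (2.1 × 50 mm, 1.8 μm). The HPLC fed a quadrupole time-of-flight mass spectrometer working in positive and negative ionization mode, with dead and dwell volumes of 40 μL and 900 μL. Data were acquired over 3 months. Retention time was read from computationally picked adduct peaks after manual inspection of each.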

Row | Structure (SMILES) | RP-LC retention time [s]
1 | Cc1ccc(NC(=O)N2CCc3nc(-c4ccccc4)ncc3C2)cc1C | 995
2 | Cc1cccc(S(=O)(=O)N2CCC(c3nc(C(=O)N(C)C)c(C)o3)CC2)c1 | 826
3 | NC(=O)c1ccccc1NC(=O)Cc1cn(Cc2ccccc2)c2ccccc12 | 853
4 | O=C(NCc1nc(-c2ccc(NS(=O)(=O)c3ccc(Cl)cc3)cc2)no1)c1cccs1 | 909
5 | COc1ccc(OC)c(NC(=O)Cn2nc3n(c2=O)CCCCC3)c1 | 715
6 | N[C@@H]1CCCCN(c2c(F)cc3c(=O)c(C(=O)O)cn(C4CC4)c3c2Cl)C1 | 707
7 | O=c1ccn(-c2cccc(F)c2)nc1-c1nc(-c2ccc(F)cc2)no1 | 902
8 | Cc1cccc(N2CCN(C(=O)CN3C(=O)CN(C)C(=O)c4ccccc43)CC2C)c1 (stereo not given) | 671
9 | COC(=O)c1ccc(NS(=O)(=O)c2ccc3c(c2)C(=O)N(C)c2ncccc2O3)cc1 | 881
10 | CCN(CC)S(=O)(=O)c1cccc(-c2cn3ccc(C)cc3n2)c1 | 656
11 | CCN1C(=O)Cc2cc(C(=O)NCc3ccc(Br)cc3)ccc21 | 807
12 | COc1ccc(CCC(=O)N2CCc3cc(-c4csc(C)n4)ccc32)cc1 | 1060
13 | Cc1cccc(NC(=O)C2CCCN(S(=O)(=O)c3c[nH]c(C(=O)N4CCCCCC4)c3)C2)c1C (stereo not given) | 883
14 | Cc1ccccc1Nc1c(-c2ccc(Cl)cc2)nc2ccc(Br)cn12 | 1090
15 | O=C(NCc1ccc(N2CCOCC2)nc1)c1ccccc1Br | 581
16 | Cc1ccc(S(=O)(=O)N(C)CC2(C)CCOCC2)cc1F | 957
17 | Cc1ccc(F)c(NS(=O)(=O)c2cc3n(c2)CCN(C)C3=O)c1 | 696
18 | CC(C)C(=O)Nc1ccc(-n2cnc(C(=O)N3CCCCCC3)c2)nc1 | 710
19 | CCOC(=O)N1CCN(c2cc(-c3nc(-c4cccc(F)c4)no3)c3ccccc3n2)CC1 | 1420
20 | O=C(Nc1nccnc1C(=O)NC1CCCC1)c1ccccc1 | 934
21 | Cc1ccc(=O)n(CCNC(=O)c2ccc3nsnc3c2)n1 | 619
22 | Cc1cc(C(=O)NCCN2CCOCC2)c2cc(Br)ccc2n1 | 582
23 | Cc1cc(C)cc(C(=O)NC2(c3nc(-c4ccccc4)no3)CCCCC2)c1 | 1280

Row | Structure (SMILES) | RP-LC retention time [s]
24 | O=C(NCCCN1CCCc2ccccc21)c1nnc(-c2ccc(S(=O)(=O)N3CCCC3)cc2)o1 | 1020
25 | Cc1ccccc1OCC(=O)Nc1cc2c(cc1Oc1ccccc1)n(C)c(=O)c(=O)n2C | 939
26 | O=c1n(CC2CC2)nc2n1CCN(S(=O)(=O)c1ccccc1C(F)(F)F)C2 | 803
27 | O=C1CCCc2c1cc(C(=O)NCCc1ccco1)c(=O)n2-c1ccc(F)cc1 | 834
28 | CC(C)c1nnc2n1CCN(C(=O)c1nn(C)c3ccccc13)C2 | 647
29 | O=C(Nc1cnn(-c2ncncc2N2CCCCC2)c1)C1CCCCC1 | 821
30 | Cc1c(S(=O)(=O)Nc2cccc(-c3ccc4ccccc4n3)c2)cnn1C(F)F | 947
31 | CN(CC(O)COc1ccc2c(c1)OCO2)C1CCCCC1 (stereo not given) | 567
32 | Cc1ccc(Oc2nccnc2SCC(=O)NCCC2=CCCCC2)cc1 | 1090
33 | CC(C)Cn1cc(CCNS(=O)(=O)c2ccc(Cl)c(Cl)c2)c2cccnc21 | 1060
34 | Cc1ccc(C2Cn3cnc(C(=O)N4CCC(C(=O)NCc5cccs5)CC4)c3CO2)cc1 (stereo not given) | 756
35 | COc1ccccc1C(=O)N1C[C@H](c2nc(-c3cccnc3)no2)[C@@H](C)C1 | 758
36 | O=C(NCCc1csc(C2CCCN(C(=O)C3CCC3)C2)n1)C1CC1 (stereo not given) | 691
37 | COc1ccc(NC(=O)c2ccc(-c3cncnc3)nc2)cc1 | 687
38 | CCn1ncc(NC(=O)COc2ccccc2C)c(N2CCCCC2)c1=O | 1150
39 | Cc1c(Cl)cccc1NC(=O)N1CCN(C2=CC3=NCC(C)N3C=N2)CC1 (stereo not given) | 632
40 | CCOC(=O)C1CCN(C(=O)C2CCN(c3ccc(N4CCCC4)nn3)CC2)CC1 | 628
41 | Cc1nc(Nc2ccc(NC(=O)c3ccc(Br)o3)cc2)cc(-n2ccnc2)n1 | 587
42 | O=C(Cn1nc2nc(Nc3ccc(F)cc3)ccn2c1=O)NC1CCCC1 | 701
43 | CC1CCCCN1CCCNC(=O)CC1CCN(C(=O)C2CCCCC2)CC1 (stereo not given) | 605
44 | Cc1ccnc(N2CCCC(C(=O)Nc3cc(Cl)ccc3C)C2)n1 (stereo not given) | 846
45 | COc1ccc2nc3oc(C(=O)NCCN4CCCCC4C)cc3cc2c1 (stereo not given) | 633
46 | CCc1noc(-c2ccnc(-n3cnc(C(=O)NCC4CC4)c3)c2)n1 | 801

Row | Structure (SMILES) | RP-LC retention time [s]
47 | CCOc1ccccc1-n1c(C(C)N2CCN(C(=O)COc3ccc(Cl)cc3)CC2)nc2ccccc2c1=O (stereo not given) | 802
48 | Cc1nc(-c2ccccc2)nn1C1CCN(S(=O)(=O)c2ccc(Cl)s2)C1 (stereo not given) | 902
49 | Cc1ccc(C)c(CNC(=O)CCNc2cnc3cnccn23)c1 | 605
50 | COc1ccc(CNC(=O)C2(C)CCN(C(=O)Nc3ccccc3C(F)(F)F)CC2)cc1 | 834
51 | Cc1ccc(-c2nc3cnccn3c2Nc2ccc(C)c(Cl)c2)cc1 | 1080
52 | CC(=O)Nc1ccc(S(=O)(=O)NCCc2cn(CC(C)C)c3ncccc23)cc1 | 726
53 | Cc1ccnc(N2CCC(C(=O)NC3CCCC3)CC2)n1 | 628
54 | CCC(C(=O)NCCc1c(C)nn(CC)c1C)n1c2ccccc2c2cnn(C)c(=O)c21 (stereo not given) | 698
55 | CCC(C)NC(=O)c1nc(CCS(=O)(=O)c2ccccc2)no1 (stereo not given) | 771
56 | c1ccc(-c2nc3nc4c(c(Nc5ccc6c(c5)OCO6)n3n2)CCCC4)cc1 | 953
57 | Cc1ccc(CNC(=O)C2(c3ccc(NC(=O)C4CC4)cc3)CCC2)cc1 | 853
58 | O=C(CF)N(O)c1ccc(/C=C/c2ccccc2)cc1 | 959
59 | O=C(Cc1ccccc1)N1CCN(c2nc(CN3CCOCC3)cs2)CC1 | 614
60 | Cc1ccccc1NC(=O)c1ccc(=O)n(CCN2CCCC2)c1 | 584
61 | Cc1sc2cc(C(=O)NC3CCCCC3)[nH]c2c1CN1CCOCC1 | 671
62 | CC(C)C(=O)N1CCc2c(c(C(=O)N3CCC(C(=O)NCc4ccc(F)cc4)CC3)nn2C)C1 | 675
63 | Cc1ccc(-c2noc(C3CCCN3S(=O)(=O)c3c(C)c(C)cc(C)c3C)n2)cc1 (stereo not given) | 788
64 | CCOC(=O)c1ccc(Nc2c(-c3cccc(Br)c3)nc3cnccn23)cc1 | 986
65 | O=C(c1ccccc1C(F)(F)F)N1CCC2(C1)C(=O)Nc1ccccc12 (stereo not given) | 743
66 | CN(C)c1ccc(CCNC(=O)C(=O)NC2CC2)cc1 | 523
67 | O=S(=O)(c1ccc(Br)cc1)N1CCNCC1 | 549
68 | O=C(NCc1ccc(C(F)(F)F)cc1)c1cn2ccccc2n1 | 746
69 | O=C(CCn1c(=O)sc2ccccc21)N(Cc1ccccc1)Cc1ccccc1 | 1040

Row | Structure (SMILES) | RP-LC retention time [s]
70 | CCCn1ccc2sc(C)c(C(=O)NCc3cccc(Br)c3)c2c1=O | 998
71 | Cc1ccc(CNC(=O)CN2C(=O)C3CCCCN3c3ccc(S(=O)(=O)N(C)C)cc32)o1 (stereo not given) | 867
72 | CC(C)CCn1c(=O)oc2ccccc21 | 928
73 | O=C(NCc1ccc(Br)cc1)C1CCCN(c2nccnc2Oc2ccccc2)C1 (stereo not given) | 1050
74 | CCCN(C)CC1(O)CCC2(CCN(C(=O)c3ccoc3)CC2)CC1 | 575
75 | O=C(NCc1cc(F)ccc1F)c1ccc2c(c1)nc1n2CCN(C2CCCCC2)C1=O | 830
76 | O=C(NC1CCCCC1)C1CCN(c2nc3ccc(-c4cncnc4)nc3s2)CC1 | 830
77 | O=C(CSc1ccc(NC(=O)C2CC2)nn1)NCc1cccs1 | 652
78 | Cc1ccc(NC(=O)Nc2ccc3nncn3c2)cc1F | 723
79 | CCS(=O)(=O)N1CCc2c(c(CN(C(=O)c3ccccc3)c3ccccc3)nn2C)C1 | 775
80 | CCCCNC(=O)C(C)Sc1nc2nc(C)cc(C)n2n1 (stereo not given) | 679
81 | Cc1oc(-c2ccc(C(=O)NCCCN3CCCC3=O)cc2)nc1CN1CCc2ccccc21 | 853
82 | CCC(=O)N1CCN(c2ccc(=O)n(-c3ccc(C(C)C)cc3)n2)CC1 | 780
83 | CN(C)c1ccc(C(=O)NC2CCN(c3cc(-c4ccccc4)[nH]n3)C2)cc1 (stereo not given) | 705
84 | CCCN1CCCCc2cc(C(=O)NC(C)COC)sc21 (stereo not given) | 907
85 | CCOc1ccc(-c2noc(N3CCC(C(=O)N4CCN(CC)CC4)CC3)n2)cc1OC | 630
86 | CN(C)S(=O)(=O)N1CC[C@@H]2C(=O)NCCCCCCN(Cc3ccncc3)[C@@H]2C1 | 603
87 | O=C([C@@H]1C[C@H](F)CN1S(=O)(=O)Cc1ccc(Cl)cc1)N1CCc2ccccc2C1 | 1020
88 | O=C(Nc1cc(F)ccc1F)N1CCN(Cc2nc3cccnc3n2-c2ccccc2)CC1 | 676
89 | Cc1cccc(C)c1NC(=O)Cn1ncc2c(N3CCN(c4ccccn4)CC3)ncnc21 | 606
90 | Clc1ccc(-c2noc(Cc3nc(-c4ccccc4)cs3)n2)cc1 | 1290
